Results on twelve molecules are retold here after paper PMC10979160 (Heliyon, 2024).

One may read the MIC as the smallest concentration in the dilution series that meets the test's criterion for growth inhibition.

The test system of experiment [1] is E. coli ATCC 25922. Briefly: Checkerboard dilution assay for synergy between CAMPs and antibiotics. Type of experiment: cell-based.
In experiment [2] the test system is E. coli ATCC 25922. Kind of experiment: MIC test for dividing and non-dividing bacterial cultures. Type of experiment: cell-based. Particulars: Escherichia coli, ATCC25922, 1 h.
Where [3] appears, read: peptide + ampicillin, 5 × 10^3 CFU/mL.
The mark [4] stands for this setting: peptide + ampicillin, 5 × 10^5 CFU/mL.
Where [5] appears, read: peptide + gentamicin, 5 × 10^3 CFU/mL.
The mark [6] stands for this setting: peptide + gentamicin, 5 × 10^5 CFU/mL.
Where [7] appears, read: peptide + levofloxacin, 5 × 10^3 CFU/mL.
Setting [8] is: peptide + levofloxacin, 5 × 10^5 CFU/mL.
Setting [9] is: read-out: MIC, dividing cells (LB).
[10] abbreviates: read-out: MIC, non-dividing cells (PBS).

Values after ≈ are worked out from the molar mass of the structure shown. Counter-ions that a name gives are not always drawn. Like-named read-outs stand apart in the source and are kept apart here. Where a SMILES comes first, the peptide text is derived from it. [ ]: non-standard residue; d: D form.

Take `CC[C@@H](C)[C@@H](NC(=O)[C@@H](Cc1c[nH]c2ccccc12)NC(=O)[C@H](N)CCCNC(=N)N)C(=O)N[C@H](CCCNC(=N)N)C(=O)N[C@H](Cc1c[nH]c2ccccc12)C(=O)N[C@@H](C(=O)N[C@H](Cc1c[nH]c2ccccc12)C(=O)N[C@H](CCCNC(=N)N)C(=O)N[C@H](CCCCN)C(=O)N[C@H](CCCCN)C(=O)N[C@H](CC(C)C)C(=O)N[C@H](CCCNC(=N)N)C(N)=O)C(C)C` [24D] (H-[dR][dW][dI][dR][dW][dV][dW][dR][dK][dK][dL][dR]-NH2): the FICI in the experiment with E. coli ATCC 25922 [1] (setting [3]) was 1.016; in the experiment on E. coli ATCC 25922 [1] (setting [4]), 0.625; in the experiment on E. coli ATCC 25922 [1] (setting [5]), 1.015; in the experiment on E. coli ATCC 25922 [1] (setting [6]), 1; in the experiment with E. coli ATCC 25922 [1] (setting [7]) it was 1; with E. coli ATCC 25922 [1] (setting [8]), 1.031.

`CC[C@H](C)[C@H](NC(=O)[C@H](Cc1c[nH]c2ccccc12)NC(=O)[C@@H](N)CCCNC(=N)N)C(=O)N[C@@H](CCCNC(=N)N)C(=O)N[C@@H](Cc1c[nH]c2ccccc12)C(=O)N[C@H](C(=O)N[C@@H](Cc1c[nH]c2ccccc12)C(=O)N[C@@H](CCCNC(=N)N)C(=O)N[C@@H](CCCCN)C(=O)N[C@@H](CCCCN)C(=O)N[C@@H](CC(C)C)C(=O)N[C@@H](CCCNC(=N)N)C(N)=O)C(C)C` [24L] (H-RWIRWVWRKKLR-NH2): the FICI with E. coli ATCC 25922 [1] (setting [3]) is reported as 0.625; in the experiment with E. coli ATCC 25922 [1] (setting [4]), 0.5; in the experiment with E. coli ATCC 25922 [1] (setting [5]), 1; with E. coli ATCC 25922 [1] (setting [6]) it was 0.5; in the experiment on E. coli ATCC 25922 [1] (setting [7]), 0.75; with E. coli ATCC 25922 [1] (setting [8]), 0.5.

`CC1(C)S[C@@H]2[C@H](NC(=O)[C@H](N)c3ccccc3)C(=O)N2[C@H]1C(=O)O` [Ampicillin, ampicillin sodium salt]: the MIC with E. coli ATCC 25922 [2] (setting [9]) and in the experiment with E. coli ATCC 25922 [2] (setting [10]) was more than 100 µg/mL throughout.

As to `CNC(C)C1CCC(N)C(OC2C(N)CC(N)C(OC3OCC(C)(O)C(NC)C3O)C2O)O1` (stereo not shown) [Gentamicin, gentamicin], the results for the MIC with E. coli ATCC 25922 [2] (setting [9]) and in the experiment with E. coli ATCC 25922 [2] (setting [10]) were 50 µg/mL (≈ 105 µM) and 25 µg/mL (≈ 52.3 µM), respectively.

Take `CC[C@H](C)[C@H](NC(=O)[C@H](C)N)C(=O)N[C@@H](CCCCN)C(=O)N[C@H](C(=O)N[C@@H](CCCNC(=N)N)C(=O)N[C@@H](CCCCN)C(=O)N[C@@H](CC(C)C)C(=O)N[C@@H](Cc1ccccc1)C(=O)N[C@@H](CCCCN)C(=O)N[C@@H](CCCCN)C(=O)N[C@@H](CC(C)C)C(=O)N[C@@H](CC(C)C)C(=O)N[C@@H](CCCNC(=N)N)C(N)=O)[C@@H](C)CC` [L1L] (H-AIKIRKLFKKLLR-NH2): the FICI came out at 0.563 in the experiment with E. coli ATCC 25922 [1] (setting [3]); 0.5 in the experiment with E. coli ATCC 25922 [1] (setting [4]); 0.75 in the experiment with E. coli ATCC 25922 [1] (setting [5]); 0.5 in the experiment with E. coli ATCC 25922 [1] (setting [6]); 0.625 with E. coli ATCC 25922 [1] (setting [7]); 0.5 with E. coli ATCC 25922 [1] (setting [8]).

`CC[C@H](C)[C@H](NC(=O)CN)C(=O)N[C@@H](CCCCN)C(=O)N[C@H](C(=O)N[C@@H](CCCNC(=N)N)C(=O)N[C@@H](CCCCN)C(=O)N[C@@H](CC(C)C)C(=O)N[C@@H](Cc1ccccc1)C(=O)N[C@@H](CCCCN)C(=O)N[C@@H](CCCCN)C(=O)N[C@@H](CC(C)C)C(=O)N[C@@H](CC(C)C)C(=O)N[C@@H](CCCNC(=N)N)C(N)=O)[C@@H](C)CC` [LCAPL2] (H-GIKIRKLFKKLLR-NH2): the FICI is listed as 0.5 in the experiment on E. coli ATCC 25922 [1] (setting [3]); 0.75 with E. coli ATCC 25922 [1] (setting [4]); 0.625 with E. coli ATCC 25922 [1] (setting [5]); 0.375 in the experiment on E. coli ATCC 25922 [1] (setting [6]); 0.531 with E. coli ATCC 25922 [1] (setting [7]); 0.625 in the experiment with E. coli ATCC 25922 [1] (setting [8]).

Turning to `CC[C@H](C)[C@H](NC(=O)[C@H](CCCNC(=N)N)NC(=O)[C@H](CCCCN)NC(=O)[C@H](CC(C)C)NC(=O)[C@H](Cc1ccccc1)NC(=O)[C@H](CCCNC(=N)N)NC(=O)[C@H](C)NC(=O)[C@@H](N)C(C)C)C(=O)N[C@H](C(=O)N[C@@H](CCCCN)C(=O)N[C@@H](C)C(=O)N[C@@H](CC(C)C)C(=O)N[C@@H](Cc1ccccc1)C(N)=O)[C@@H](C)CC` [LCAPL8] (H-VARFLKRIIKALF-NH2), the FICI was 1.016 in the experiment on E. coli ATCC 25922 [1] (setting [3]); 1.031 in the experiment with E. coli ATCC 25922 [1] (setting [4]); 1.031 in the experiment on E. coli ATCC 25922 [1] (setting [5]); 0.531 with E. coli ATCC 25922 [1] (setting [6]); 1.25 in the experiment on E. coli ATCC 25922 [1] (setting [7]); 0.625 in the experiment with E. coli ATCC 25922 [1] (setting [8]).

For the molecule `CC[C@H](C)[C@H](NC(=O)[C@H](Cc1ccccc1)NC(=O)CN)C(=O)N[C@@H](CCCCN)C(=O)N[C@H](C(=O)N[C@H](C(=O)N[C@@H](CCCNC(=N)N)C(=O)N[C@@H](CCCCN)C(=O)N[C@@H](CC(C)C)C(=O)N[C@@H](CC(C)C)C(=O)N[C@@H](CCCNC(=N)N)C(=O)N[C@@H](CC(C)C)C(=O)N[C@@H](Cc1ccccc1)C(N)=O)C(C)C)[C@@H](C)CC` [LCAPL9] (H-GFIKIVRKLLRLF-NH2), the FICI came to 1.016 in the experiment with E. coli ATCC 25922 [1] (setting [3]); 0.625 with E. coli ATCC 25922 [1] (setting [4]); 1 with E. coli ATCC 25922 [1] (setting [5]); 1.031 with E. coli ATCC 25922 [1] (setting [6]); 2 with E. coli ATCC 25922 [1] (setting [7]); 1.25 with E. coli ATCC 25922 [1] (setting [8]).

For `CC[C@H](C)[C@H](N)C(=O)N[C@H](C(=O)N[C@@H](CCCCN)C(=O)N[C@@H](CCCNC(=N)N)C(=O)N[C@H](C(=O)N[C@@H](CC(C)C)C(=O)N[C@H](C(=O)N[C@@H](CCC(N)=O)C(=O)N[C@@H](CC(C)C)C(=O)N[C@@H](CCCCN)C(=O)N[C@@H](CCCCN)C(=O)N[C@@H](CC(C)C)C(=O)N[C@@H](CC(C)C)C(N)=O)[C@@H](C)CC)[C@@H](C)CC)[C@@H](C)CC` [LCAPL10] (H-IIKRILIQLKKLL-NH2), the FICI in the experiment on E. coli ATCC 25922 [1] (setting [3]) is 1.016; in the experiment with E. coli ATCC 25922 [1] (setting [4]) it was 0.75; in the experiment on E. coli ATCC 25922 [1] (setting [5]), 1.125; in the experiment on E. coli ATCC 25922 [1] (setting [6]), 0.5; with E. coli ATCC 25922 [1] (setting [7]), 1.031; in the experiment with E. coli ATCC 25922 [1] (setting [8]) it was 0.531.

Take `CC(C)C[C@H](NC(=O)[C@H](Cc1ccccc1)NC(=O)[C@H](CCCCN)NC(=O)[C@@H](N)CCCCN)C(=O)NCC(=O)N[C@@H](CCCCN)C(=O)N[C@@H](Cc1c[nH]c2ccccc12)C(=O)N[C@@H](CCCCN)C(=O)N[C@@H](CC(C)C)C(=O)N[C@@H](CCCNC(=N)N)C(=O)N[C@@H](Cc1ccccc1)C(=O)NCC(=O)N[C@@H](Cc1c[nH]c2ccccc12)C(N)=O` [LCAPL15] (H-KKFLGKWKLRFGW-NH2): the FICI in the experiment on E. coli ATCC 25922 [1] (setting [3]) came out at 0.75; in the experiment on E. coli ATCC 25922 [1] (setting [4]), 0.563; in the experiment with E. coli ATCC 25922 [1] (setting [5]), 1.031; in the experiment with E. coli ATCC 25922 [1] (setting [6]) it was 0.75; in the experiment on E. coli ATCC 25922 [1] (setting [7]) it was 0.75; in the experiment on E. coli ATCC 25922 [1] (setting [8]), 0.563.

Regarding `CC(C)C[C@@H](N)C(=O)N[C@@H](C(=O)N[C@H](Cc1c[nH]c2ccccc12)C(=O)N[C@H](CCCCN)C(=O)N[C@H](CC(C)C)C(=O)N[C@H](Cc1c[nH]c2ccccc12)C(=O)N[C@H](Cc1c[nH]c2ccccc12)C(=O)N[C@H](CCCNC(=N)N)C(=O)N[C@H](CC(C)C)C(=O)N[C@H](CCCNC(=N)N)C(=O)N[C@H](Cc1c[nH]c2ccccc12)C(=O)N[C@H](CC(C)C)C(=O)N[C@H](CCCCN)C(N)=O)C(C)C` [ST1D] (H-[dL][dV][dW][dK][dL][dW][dW][dR][dL][dR][dW][dL][dK]-NH2), the FICI in the experiment on E. coli ATCC 25922 [1] (setting [3]) is given as 0.625; in the experiment with E. coli ATCC 25922 [1] (setting [4]), 0.625; in the experiment with E. coli ATCC 25922 [1] (setting [5]) it was 0.516; in the experiment on E. coli ATCC 25922 [1] (setting [6]), 0.625; with E. coli ATCC 25922 [1] (setting [7]), 1; with E. coli ATCC 25922 [1] (setting [8]), 1.031.

As for `CC(C)C[C@H](NC(=O)[C@H](Cc1c[nH]c2ccccc12)NC(=O)[C@H](CCCNC(=N)N)NC(=O)[C@H](CC(C)C)NC(=O)[C@H](CCCNC(=N)N)NC(=O)[C@H](Cc1c[nH]c2ccccc12)NC(=O)[C@H](Cc1c[nH]c2ccccc12)NC(=O)[C@H](CC(C)C)NC(=O)[C@H](CCCCN)NC(=O)[C@H](Cc1c[nH]c2ccccc12)NC(=O)[C@@H](NC(=O)[C@@H](N)CC(C)C)C(C)C)C(=O)N[C@@H](CCCCN)C(N)=O` [ST1L] (H-LVWKLWWRLRWLK-NH2), the FICI is on record as 0.375 with E. coli ATCC 25922 [1] (setting [3]); 0.625 with E. coli ATCC 25922 [1] (setting [4]); 1 in the experiment with E. coli ATCC 25922 [1] (setting [5]); 0.516 in the experiment with E. coli ATCC 25922 [1] (setting [6]); 0.625 with E. coli ATCC 25922 [1] (setting [7]); 0.75 in the experiment on E. coli ATCC 25922 [1] (setting [8]).
